# Laboratory results: patent US20210393520A1, “TREATMENT OF GRAM-NEGATIVE FOLLICULITIS OR AN INFLAMMATION THEREOF WITH BESIFLOXACIN” (VYOME THERAPEUTICS LIMITED, priority 2018, published 2021)
# “Also recorded” adds a separate entry of the source.
# Tests used:
# [1] = test system: microorganisms that cause gram-negative folliculitis; assay: MIC, summary statements on gram-negative bacteria involved in GNF; format: cell-based; conditions: for Activity against gram-negative bacterial strains involved in GNF (in words): irrespective of response to other conventional antibiotics or quinolones, ampicillin/cefotaxime susceptible and resistant strains
# Method: (§1) MIC of besifloxacin and other antibiotics molecules were determined by micro broth dilution method as per the Clinical and Laboratory Standards Institute (CLSI) guideline. MIC assay is the determinant of the inherent anti-microbial potency of a particular molecule. For preparing inoculum, bacterial strains were cultured in Brain Heart Infusion Agar (BHIA) at 37° C. for 24 hours. […] For bacterial inoculum, bacterial culture turbidity was adjusted to 0.1 OD at 600 nm in UV-Visual spectrophotometer (approximately 1.5×10^8 cells/ml) and further diluted (100 times with sterile BHI broth). Diluted bacterial suspension (100 μl) was added to each well except sterility control wells (column 12 of 96 well plate). Column 11 of 96 well plate was used as growth control and vehicle control. The plates were incubated at 37° C. for 24 h. The MIC of the test compounds were determined by observing the lowest concentration of test compound that prevented the visual bacterial growth.
# (§2) Besifloxacin HCL was tested against ampicillin and cefotaxime (3rd generation cephalosporin) susceptible and resistant gram-negative bacterial strains involved in GNF (gram negative folliculitis) by broth dilution method as per the Clinical & Laboratory Standards Institutes (CLSI) guidelines. MIC assay was performed in 96 well plates by micro broth dilution method, in 96 well plates, all the wells were added with 100 μl of sterilized Muller Hinton broth No: 2 cation broth (HiMedia, India). The initial stock of test compounds (1 mg/ml) were prepared in dimethyl sulfoxide (DMSO) and further dilutions were made in culture broth to get the desirable concentration. Then 100 μl of broth containing test compounds were initially added to the first column's wells and then serial dilution was performed up to well of 10th column. Wells of 11th and 12th column served as a positive and negative control respectively. Finally, 100 μl of inoculum (0.5 McFarland equal bacterial suspension was 100 times diluted in culture broth) was added to all the wells. Plates were incubated at 37° C. for 18-24 hrs. After incubation, MIC of each test compound was determined by observing the lowest concentration of test compound that has no visual growth compared to growth control. Minimum inhibitory concentration of besifloxacin, ampicillin and cefotaxime against gram negative bacterial strains were shown in Table 1.
# [2] = test system: A. baumannii CCARM 12001 (Quinolone resistant strain); assay: MIC, micro broth dilution (CLSI), Table 1A; format: cell-based; conditions: Acinetobacter baumannii, CCARM12001
# Method: as §1
# [3] = test system: E. coli ATCC BAA 196 (multi-drug resistant strain); assay: MIC, micro broth dilution (CLSI), Table 1A; format: cell-based; conditions: Escherichia coli, BAA196
# Method: as §1
# [4] = test system: A. haumannii ATCC 19606 (wild type); assay: MIC, micro broth dilution (CLSI), Table 1A; format: cell-based; conditions: Acinetobacter baumannii, ATCC19606
# Method: as §1
# [5] = test system: K. pneumoniae ATCC 13883 (wild type); assay: MIC, micro broth dilution (CLSI), Table 1A; format: cell-based; conditions: Klebsiella pneumoniae, ATCC13883
# Method: as §1
# [6] = test system: A. baumannii CCARM 12020 (multi-drug resistant, quinolone susceptible); assay: MIC, micro broth dilution (CLSI), Table 1A; format: cell-based; conditions: Acinetobacter baumannii, CCARM12020
# Method: as §1
# [7] = test system: P. aeruginosa ATCC 27853 (wild type); assay: MIC, micro broth dilution (CLSI), Table 1A; format: cell-based; conditions: Pseudomonas aeruginosa, ATCC27853
# Method: as §1
# [8] = test system: P. aeruginosa CCARM 2204 (multi-drug resistant, quinolone susceptible); assay: MIC, micro broth dilution (CLSI), Table 1A; format: cell-based; conditions: Pseudomonas aeruginosa, CCARM2204
# Method: as §1
# [9] = test system: E. coli MTCC 1687 (wild type); assay: MIC, micro broth dilution (CLSI), Table 1A; format: cell-based; conditions: Escherichia coli, MTCC1687
# Method: as §1
# [10] = test system: Enterobacter sp. 1; assay: MIC, micro broth dilution in Muller Hinton broth (CLSI), Table 1B; format: cell-based; conditions: read-out: Minimum Inhibitory Concentration
# Method: as §2
# [11] = test system: Klebsiella sp. 512; assay: as above; format: cell-based; conditions: read-out: Minimum Inhibitory Concentration
# Method: as §2
# [12] = test system: Enterobacter sp. 2; assay: as above; format: cell-based; conditions: read-out: Minimum Inhibitory Concentration
# Method: as §2
# [13] = test system: Klebsiella sp. 498; assay: as above; format: cell-based; conditions: read-out: Minimum Inhibitory Concentration
# Method: as §2
# [14] = test system: Blastococcus sp. S21A-2; format: cell-based; conditions: Blastococcus sp. S21A-2, isolated from acne lesions
# Method: as §1
# (§3) Different skin resident bacteria were isolated from acne lesions of moderate to severe acne patients.
# [15] = test system: Dermatobacter hominis S11-2; assay: MIC against bacteria isolated from acne lesions, Table 2; format: cell-based; conditions: S112; Dermatobacter hominis S11-2, isolated from acne lesions; read-out: Minimum Inhibitory Concentration
# Method: as §1, §3
# [16] = test system: Microbacterium sp. S20-2; assay: as above; format: cell-based; conditions: Microbacterium sp. S20-2, isolated from acne lesions
# Method: as §1, §3
# [17] = test system: Bacillus megaterium M1-2.; assay: as above; format: cell-based; conditions: Priestia megaterium, M12., read-out: Minimum Inhibitory Concentration
# Method: as §1, §3
# [18] = test system: Enterobacter aerogenes M2-1; assay: as above; format: cell-based; conditions: Klebsiella aerogenes, M21; Enterobacter aerogenes M2-1, isolated from acne lesions; read-out: Minimum Inhibitory Concentration
# Method: as §1, §3
# [19] = test system: Staphylococcus haemolyticus M1-1; assay: as above; format: cell-based; conditions: M11; Staphylococcus haemolyticus M1-1, isolated from acne lesions; read-out: Minimum Inhibitory Concentration
# Method: as §1, §3
# [20] = test system: S. epidermidis S1-1; assay: as above; format: cell-based; conditions: Staphylococcus epidermidis, S11; S. epidermidis S1-1, isolated from acne lesions; read-out: Minimum Inhibitory Concentration
# Method: as §1, §3
# [21] = test system: Kocuria sp. S18-1; assay: as above; format: cell-based; conditions: SP.S181; Kocuria sp. S18-1, isolated from acne lesions; read-out: Minimum Inhibitory Concentration
# Method: as §1, §3
# [22] = test system: K. pneumoniae S6-1; assay: as above; format: cell-based; conditions: Klebsiella pneumoniae, S61; K. pneumoniae S6-1, isolated from acne lesions; read-out: Minimum Inhibitory Concentration
# Method: as §1, §3
# [23] = test system: P. avidum S3-1; assay: as above; format: cell-based; conditions: Cutibacterium avidum, S31; P. avidum S3-1, isolated from acne lesions; read-out: Minimum Inhibitory Concentration
# Method: as §1, §3
# [24] = test system: P. acnes V3-1; assay: as above; format: cell-based, Propionibacterium acnes; conditions: Cutibacterium acnes, V31; P. acnes V3-1, isolated from acne lesions; read-out: Minimum Inhibitory Concentration
# Method: as §1, §3
smiles,measurement,setting,value
N[C@@H]1CCCCN(c2c(F)cc3c(=O)c(C(=O)O)cn(C4CC4)c3c2Cl)C1 [Besifloxacin],Activity against gram-negative bacterial strains involved in GNF (in words),[1],very effective; also recorded: efficacious
same,Activity against gram-negative bacterial strains involved in GNF (in words),[1]; listed as besifloxacin,susceptible
same,MIC,"[1]; range over strains, read-out: MIC of besifloxacin against microorganisms that cause gram-negative folliculitis",0.125 to 16 µg/mL
same,MIC better (lower) compared with conventional antibiotics,"[1]; vs cefotaxime, ampicillin, clindamycin, tetracycline and erythromycin",at least 50%
same,MIC,[2],2 µg/mL
same,MIC,[3],1 µg/mL
same,MIC,[4],1 µg/mL
same,MIC,[5],0.25 µg/mL
same,MIC,[6],4 µg/mL
same,MIC,[7],0.5 µg/mL
same,MIC,[8],4 µg/mL
same,MIC,[9],0.125 µg/mL
same,MIC,[10],16 µg/mL
same,MIC,[11],0.25 µg/mL
same,MIC,[12],1 µg/mL
same,MIC,[13],16 µg/mL
same,Minimum Inhibitory Concentration,[14],0.06 µg/mL
same,MIC,[15],1 µg/mL
same,Minimum Inhibitory Concentration,[16],0.5 µg/mL
same,MIC,[17],0.02 µg/mL
same,MIC,[18],0.25 µg/mL
same,MIC,[19],0.13 µg/mL
same,MIC,[20],0.25 µg/mL
same,MIC,[21],0.5 µg/mL
same,MIC,[22],1 µg/mL
same,MIC,[23],0.5 µg/mL
same,MIC,[24],0.5 µg/mL
